In patent US20220356170A1, “SREBP INHIBITOR COMPRISING A THIOPHENE CENTRAL RING” (Capulus Therapeutics, LLC, priority 2019, published 2022):

Tests used:
Test in all cases: Cancer cell growth inhibition, Sulforhodamine B
Assay type in all cases: cell-based
EFO21 = settings: Homo sapiens, EFO-21; EFO21 (ovary), 72 hr; Responder Cell Lines
Method: (§1) The ability of select compounds to inhibit cell growth in various cancer cell lines are evaluated. […] The cell lines shown in Table 5 have reduced growth by at least 50% at 10 uM or lower over 72 hr treatment in growth media. The cell lines shown in Table 6 have reduced growth by at least 50% with an IC50 greater than 10 uM.
(§2) Six 10-fold compound dilutions are prepared in DMSO (e.g. 10 mM, 1 mM, 100 uM, 10 uM, 1 uM, and 0.1 uM). Single data points are acquired for each concentration. The final concentration of DMSO is 0.1%. The duration of the treatment is 72 hr. Growth inhibition is measured using Sulforhodamine B in a protein staining assay. Activity of the agents is determined by evaluation the following parameters: IC50, GI50, IC10, TGI, LC50, IC90, and GI90 (where these values can be calculated).

MCF7 = settings: Homo sapiens; MCF7 (breast), 72 hr; Responder Cell Lines
Method: as §1, §2

TE671 = settings: Homo sapiens, TE-671, 72 h, TE671 (muscle)
Method: as §1, §2

HEK293 = settings: Homo sapiens; HEK293 (kidney), 72 hr; Responder Cell Lines
Method: as §1, §2

ACHN = settings: Homo sapiens; ACHN (kidney), 72 hr; Responder Cell Lines
Method: as §1, §2

UMUC3 = settings: Homo sapiens; UMUC3 (bladder), 72 hr; Non-Responder Cell Lines with IC50 >10 uM or Not Determined
Method: as §1, §2

SKNSH = settings: Homo sapiens, SK-N-SH, 72 h, SKNSH (brain)
Method: as §1, §2

ASPC1 = settings: Homo sapiens; ASPC1 (pancreas), 72 hr; Responder Cell Lines
Method: as §1, §2

DLD1 = settings: Homo sapiens, DLD-1; DLD1 (colon), 72 hr; Non-Responder Cell Lines with IC50 >10 uM or Not Determined
Method: as §1, §2

KASUMI-1 = settings: Homo sapiens; KASUMI-1 (hematological), 72 hr; Non-Responder Cell Lines with IC50 >10 uM or Not Determined
Method: as §1, §2

SU-DHL-10 = settings: Homo sapiens, SU-DHL10; SU-DHL-10 (hematological), 72 hr; Non-Responder Cell Lines with IC50 >10 uM or Not Determined
Method: as §1, §2

C33A = settings: Homo sapiens, C-33-A; 72 hr; Responder Cell Lines
Method: as §1, §2

PC3 = settings: Homo sapiens, PC-3; PC3 (prostate), 72 hr; Non-Responder Cell Lines with IC50 >10 uM or Not Determined
Method: as §1, §2

L-363 = settings: Homo sapiens; L-363 (hematological), 72 hr; Responder Cell Lines
Method: as §1, §2

JEG3 = settings: Homo sapiens, JEG-3; JEG3 (placenta), 72 hr; Responder Cell Lines
Method: as §1, §2

BT20 = settings: Homo sapiens, BT-20; BT20 (breast), 72 hr; Non-Responder Cell Lines with IC50 >10 uM or Not Determined
Method: as §1, §2

PANC1 = settings: Homo sapiens, PANC-1; PANC1 (pancreas), 72 hr; Non-Responder Cell Lines with IC50 >10 uM or Not Determined
Method: as §1, §2

SU-DHL-6 = settings: Homo sapiens, SU-DHL-6, 72 h, SU-DHL-6 (hematological)
Method: as §1, §2

PBMC = PBMC (hematological), 72 hr; Non-Responder Cell Lines with IC50 >10 uM or Not Determined
Method: as §1, §2

SF295 = settings: Homo sapiens, SF-295, 72 h, SF295 (brain)
Method: as §1, §2

RAMOS = settings: Homo sapiens, 72 h, RAMOS (hematological)
Method: as §1, §2

RDES = settings: RD-ES; RDES (bone), 72 hr; Non-Responder Cell Lines with IC50 >10 uM or Not Determined
Method: as §1, §2

SNB75 = settings: Homo sapiens, SNB-75; SNB75 (brain), 72 hr; Non-Responder Cell Lines with IC50 >10 uM or Not Determined
Method: as §1, §2

CACO2 = settings: Homo sapiens, Caco-2; CACO2 (colon), 72 hr; Responder Cell Lines
Method: as §1, §2

SAOS2 = settings: Homo sapiens, SAOS-2; SAOS2 (bone), 72 hr; Non-Responder Cell Lines with IC50 >10 uM or Not Determined
Method: as §1, §2

[1] = Non-Responder Cell Lines with IC50 >10 uM or Not Determined

In the case of `CC(C)(O)c1cc(-c2csc(-c3ccc(C(=O)N4CCC(O)CC4)cc3Cl)c2)ccn1` [Compound 1, (3-chloro-4-(4-(2-(2-hydroxypropan-2-yl)pyridin-4-yl)thiophen-2-yl)phenyl)(4-hydroxypiperidin-1-yl)methanone], the IC50 (EFO21) is reported as less than 10 µM, the IC50 (MCF7) is reported as less than 10 µM and the IC50 (TE671; [1]) is reported as greater than 10 µM. For the same molecule, the IC50 (TE671; Responder Cell Lines) was less than 10 µM, the IC50 (HEK293) was less than 10 µM and the IC50 (ACHN) was less than 10 µM. It also gave an IC50 (UMUC3) greater than 10 µM, an IC50 (SKNSH; [1]) greater than 10 µM and an IC50 (SKNSH; Responder Cell Lines) of less than 10 µM. It also gave an IC50 (ASPC1) of less than 10 µM, an IC50 (DLD1) greater than 10 µM and an IC50 (KASUMI-1) greater than 10 µM. For the same molecule, the IC50 (SU-DHL-10) was greater than 10 µM, the IC50 (C33A) was less than 10 µM and the IC50 (PC3) was greater than 10 µM. The IC50 (L-363) was less than 10 µM, the IC50 (JEG3) was less than 10 µM and the IC50 (BT20) was greater than 10 µM. It also gave an IC50 (PANC1) greater than 10 µM, an IC50 (SU-DHL-6; [1]) greater than 10 µM and an IC50 (SU-DHL-6; Responder Cell Lines) of less than 10 µM. For the same molecule, the IC50 (PBMC) was greater than 10 µM, the IC50 (SF295; [1]) was greater than 10 µM and the IC50 (SF295; Responder Cell Lines) was less than 10 µM. For the same molecule, the IC50 (RAMOS; [1]) was greater than 10 µM, the IC50 (RAMOS; Responder Cell Lines) was less than 10 µM and the IC50 (RDES) was greater than 10 µM. It also gave an IC50 (SNB75) greater than 10 µM, an IC50 (CACO2) of less than 10 µM and an IC50 (SAOS2) greater than 10 µM.
